From ChEMBL document CHEMBL1201862, “PubChem BioAssay data set” (2004) come the findings set out here.

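Tested at 5 concentrations; 48 h exposure; 96-well plates; endpoints linearly interpolated, else capped at highest concentration. GI50 marks 50% less growth.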 Calls of active or inactive are those of the source. Cut-off read from the data, not from the text of the source: active = GI50 up to about 1.1 µM and inactive = higher.

Some test systems named below: LXFL 529; DMS-273; HCT-15; SN12C; 786-0; SNB-78; RXF 393; SNB-19; M19-MEL; UACC-257; OVCAR-8; IGROV-1; HOP-18; OVCAR-5.
What all share (experiment): DTP human tumour cell line panel, 48 h

A word on the GI50: it is the concentration giving 50% growth inhibition. Consider `CCOC(=O)C1=C(C)C2C3C(=O)OC(=O)C3C1(C)C1C(=O)OC(=O)C21` (stereo not drawn), for which the GI50 in the test on LXFL 529 was > 100 µM (inactive); in the test with DMS-273, > 100 µM (inactive); in the test with HCT-15, over 100 µM; with SN12C, > 100 µM (inactive); with 786-0, > 100 µM (inactive); in the test on SNB-78, > 100 µM (inactive). Besides, the GI50 in the test with RXF 393, in the test on SNB-19, in the test with M19-MEL, in the test with UACC-257, in the test on OVCAR-8 and in the test with IGROV-1 was > 100 µM (inactive) each time.

Regarding `Clc1cccc(C2N3CCCCC3[C@@H]3c4[nH]c5ccccc5c4CCN23)c1` (stereo partly drawn), the GI50 with HOP-18 is > 100 µM (inactive); with OVCAR-5, 21 µM (inactive); in the test with DMS-273, 30.1 µM (inactive); in the test on HCT-15, 48.2 µM; with SN12C, 13.6 µM (inactive); in the test with 786-0 it was 32.6 µM (inactive). In addition, the GI50 is 27 µM (inactive) in the test on RXF 393; 55 µM (inactive) in the test with SNB-19; 20.1 µM (inactive) with M19-MEL; 30.5 µM (inactive) in the test with UACC-257; 41.4 µM (inactive) in the test on OVCAR-8; 50.8 µM (inactive) in the test with IGROV-1.

On to `c1ccc2c(c1)oc1ccc3nsnc3c12`, for which the GI50 is > 100 µM (inactive) in the test on HOP-18; > 100 µM (inactive) in the test on OVCAR-5; > 100 µM (inactive) in the test on LXFL 529; > 100 µM (inactive) in the test on DMS-273; over 100 µM in the test on HCT-15; > 100 µM (inactive) in the test with 786-0. Further, the GI50 was 71 µM (inactive) in the test with RXF 393; > 100 µM (inactive) with SNB-19; > 100 µM (inactive) in the test on M19-MEL; > 100 µM (inactive) in the test on UACC-257; > 100 µM (inactive) with IGROV-1.

As for `CN(CCN(C)C(=O)CCn1ccc(=O)[nH]c1=O)C(=O)CCn1ccc(=O)[nH]c1=O`, the GI50 was > 100 µM (inactive) in the test on OVCAR-5; > 100 µM (inactive) with LXFL 529; > 100 µM (inactive) with DMS-273; over 100 µM in the test with HCT-15; > 100 µM (inactive) in the test with SN12C; > 100 µM (inactive) with 786-0. The GI50 in the test on SNB-78, in the test on RXF 393, in the test on SNB-19, with M19-MEL, in the test on OVCAR-8 and in the test on IGROV-1 was > 100 µM (inactive) each time.

For `N#C/C(=C1\SC(/N=N/c2ccccc2)C(=O)N1c1ccccc1)c1nc2ccccc2[nH]1` (stereo not drawn), the GI50 is > 100 µM (inactive) in the test on OVCAR-5; > 100 µM (inactive) in the test with LXFL 529; 45.7 µM (inactive) with DMS-273; over 100 µM in the test with HCT-15; > 100 µM (inactive) in the test on SN12C; 7.35 µM (inactive) in the test on 786-0. The GI50 was > 100 µM (inactive) in the test on SNB-78; 28.6 µM (inactive) in the test on RXF 393; > 100 µM (inactive) in the test on SNB-19; > 100 µM (inactive) in the test with M19-MEL; 78.2 µM (inactive) with UACC-257; > 100 µM (inactive) with OVCAR-8. For the same molecule, the GI50 with IGROV-1 was 20.5 µM (inactive).

Regarding `O=C(CC1(O)C(=O)Nc2ccc([N+](=O)[O-])cc21)c1ccc2ccccc2c1` (stereo not drawn), the GI50 with OVCAR-5 was > 100 µM (inactive); in the test with LXFL 529, > 100 µM (inactive); with DMS-273, > 100 µM (inactive); in the test on HCT-15 it was over 100 µM; with SN12C it was > 100 µM (inactive); in the test with 786-0, > 100 µM (inactive). Besides, the GI50 in the test with SNB-78, with RXF 393, with SNB-19, in the test with M19-MEL, in the test with UACC-257 and with OVCAR-8 was > 100 µM (inactive) each time. Also, the GI50 with IGROV-1 was > 100 µM (inactive).
